Measurements: patent publication US4385055A, “2-Acetyl-and 2-propionylpyridine thiosemicarbazones as antimalarials” (The United States of America as represented by the …, priority 1981, dated 1983)
Converted amounts (≈) assume the structure as drawn. Like-named read-outs stand apart in the source and are kept apart here.

Key:
[1] = tested on: Mycobacterium intracellulare; assay: Broth dilution MIC, Mycobacterium intracellulare strains (Test 6); assay type: cell-based; conditions: read-out: Minimum Inhibitory Concentration
[2] = tested on: Plasmodium berghei KBG 173; assay: In vivo antimalarial activity in mice (Test 5); set-up: key to In vivo Antimalarial Activity: C: Mice surviving 60 days are considered cured; Active: Activity is defined as a 100% increase in the mean survival time of the treated mice compared to the control group; Toxicity is defined as a decrease in the mean survival time of the treated mice as compared to the control group; conditions: for ED50: Plasmodium berghei, computed estimate of the dose required to cure 50% of the mice; for In vivo Antimalarial Activity: mice, C = Cure (cured/treated mice)
Method: Compounds were tested against Plasmodium berghei KBG 173 malaria in mice following the procedure described by T. S. Osdene, P. B. Russell, and L. Rane [J. Med. Chem. 10:431-434 (1967)]. Five mice were tested at each dosage level. Mice surviving 60 days are considered cured. Toxicity is defined as a decrease in the mean survival time of the treated mice as compared to the control group. Activity is defined as a 100% increase in the mean survival time of the treated mice compared to the control group.

Neisseria gonorrhoeae = assay: Agar dilution MIC, Neisseria gonorrhoeae isolates (Test 3); assay type: cell-based; conditions: 24 h, read-out: Minimum Inhibitory Concentration
Method: Compounds were tested against six Neisseria gonorrhoeae isolates. The bacteria used were provided by the Department of Bacterial Diseases of the Walter Reed Army Institute of Research. The test procedure used was the agar dilution method in duplicate as outlined by J. C. Sherris on pages 411-412 (loc. cit.). GC Medium (Difco) with a 2% defined supplement added as described by D. S. Kellogg et al. [J. Bact. 85:1274-1279 (1963)] was used as the media. The compounds were dissolved in DMSO (1.0 mg/mL), diluted with GC broth (GC Medium without agar) to the appropriate concentration, and added to the GC Medium at 55°-56° C. The latter was then poured and allowed to solidify. A penicillin standard was also prepared with initial dilutions as described by J. C. Sherris followed by dilutions with GC broth and addition to the GC Medium at 55°-56° C. as above. The inoculum was 1:200 GC broth dilution of a suspension of colony isolates after the suspension was adjusted visually to the turbidity standard described by J. M. Matsen and A. L. Barr on page 422 in "Manual of Clinical Microbiology," 2nd ed., E. Lennette, E. H. Spaulding, and J. P. Truant, Ed. (American Society for Microbiology, Washington, D.C., 1974). The plates were inoculated with a replicator and incubated at 37° C. under 5-10% carbon dioxide.

Group D Enterococcus = assay: Macro broth dilution MIC, Group D Enterococcus isolates (Test 1); assay type: cell-based; conditions: 24 h, read after 24 hours, read-out: Minimum Inhibitory Concentration
Method: (§1) Compounds were tested against five isolates of Staphylococcus aureus and five isolates of Group D Enterococcus. The bacteria used were isolated from patients at the Walter Reed Army Medical Center, Washington, D.C. The test procedure used was the macro broth dilution method in duplicate as outlined by J. C. Sherris on pages 414-415 in "Manual of Clinical Microbiology," 2nd ed., E. Lennette, E. H. Spaulding, and J. P. Truant, Ed. (American Society for Microbiology, Washington, D.C., 1974). Each compound was dissolved in DMSO (12.8 mg/mL) and then diluted with Mueller-Hinton broth to obtain the desired dilutions. Tubes containing the highest quantities of DMSO with no compound present were run as controls.

Neisseria meningitidis = assay: Macro broth dilution MIC, Neisseria meningitidis isolates (Test 2); assay type: cell-based; conditions: Neisseria meningitidis, 24 h, read after 24 hours, read-out: Minimum Inhibitory Concentration
Method: Compounds were tested against five isolates of Neisseria meningitidis. The bacterial isolates were provided by the Department of Bacterial Diseases of the Walter Reed Army Institute of Research. The test procedure used was the macro broth dilution method in duplicate outlined by J. C. Sherris on pages 414-415 (loc. cit.). The test compounds and controls were prepared as in Test 1 above. Ampicillin and penicillin standards were initially diluted as described by J. C. Sherris on pages 411-412 (loc. cit.) followed by dilution with Mueller-Hinton broth. The tubes were incubated at 37° C. under 5-10% carbon dioxide.

Staphylococcus aureus = assay: Macro broth dilution MIC, Staphylococcus aureus isolates (Test 1); assay type: cell-based; conditions: 24 h, read after 24 hours, read-out: Minimum Inhibitory Concentration
Method: as §1

[3] = Mycobacterium intracellulare strain I
[4] = Mycobacterium intracellulare strain II
[5] = Mycobacterium intracellulare strain III
[6] = Mycobacterium intracellulare strain IV
[7] = Mycobacterium intracellulare strain V
[8] = Mycobacterium intracellulare strain VI
[9] = Neisseria gonorrhoeae isolate 135, read after 24 hours
[10] = Neisseria gonorrhoeae isolate 161, read after 24 hours
[11] = Neisseria gonorrhoeae isolate 278, read after 24 hours
[12] = Neisseria gonorrhoeae isolate 455, read after 24 hours
[13] = Neisseria gonorrhoeae isolate 456, read after 24 hours
[14] = Neisseria gonorrhoeae isolate 602, read after 24 hours
[15] = Group D Enterococcus isolate II
[16] = Group D Enterococcus isolate III
[17] = Group D Enterococcus isolate IV
[18] = Neisseria meningitidis isolate 7957
[19] = Neisseria meningitidis isolate 7990
[20] = Neisseria meningitidis isolate 8005
[21] = Neisseria meningitidis isolate 8006
[22] = Neisseria meningitidis isolate 8011

| SMILES | MIC [1, 3] [µg/mL] | MIC [1, 4] [µg/mL] | MIC [1, 5] [µg/mL] | MIC [1, 6] [µg/mL] | MIC [1, 7] [µg/mL] | MIC [1, 8] [µg/mL] | ED50 [2] [mg/kg] | MIC (Neisseria gonorrhoeae; [9]) [µg/mL] | MIC (Neisseria gonorrhoeae; [10]) [µg/mL] | MIC (Neisseria gonorrhoeae; [11]) [µg/mL] | MIC (Neisseria gonorrhoeae; [12]) [µg/mL] | MIC (Neisseria gonorrhoeae; [13]) [µg/mL] | MIC (Neisseria gonorrhoeae; [14]) [µg/mL] | MIC (Group D Enterococcus; Group D Enterococcus isolate I) [µg/mL] | MIC (Group D Enterococcus; [15]) [µg/mL] | MIC (Group D Enterococcus; [16]) [µg/mL] | MIC (Group D Enterococcus; [17]) [µg/mL] | MIC (Group D Enterococcus; Group D Enterococcus isolate V) [µg/mL] | MIC (Neisseria meningitidis; [18]) [µg/mL] | MIC (Neisseria meningitidis; [19]) [µg/mL] | further results |
| --- | --- | --- | --- | --- | --- | --- | --- | --- | --- | --- | --- | --- | --- | --- | --- | --- | --- | --- | --- | --- | --- |
| CC(=NNC(=S)N1CCCCCC1)c1ccccn1 [H, 1-Azacycloheptane-1-thiocarboxylic acid 2-[1-(2-pyridyl)ethylidene]hydrazide] | 1 (≈ 3.62 µM) | 1 (≈ 3.62 µM) | 1 (≈ 3.62 µM) | 1 (≈ 3.62 µM) | 1 (≈ 3.62 µM) | 1 (≈ 3.62 µM) | 72 | 0.031 (≈ 0.112 µM) | 0.016 (≈ 0.0579 µM) | 0.031 (≈ 0.112 µM) | 0.031 (≈ 0.112 µM) | 0.016 (≈ 0.0579 µM) | 0.031 (≈ 0.112 µM) | 4 (≈ 14.5 µM) | 4 (≈ 14.5 µM) | 4 (≈ 14.5 µM) | 4 (≈ 14.5 µM) | 4 (≈ 14.5 µM) | 0.031 (≈ 0.112 µM) | 0.062 (≈ 0.224 µM) | In vivo Antimalarial Activity ([2]; Dosage Level 40 mg/kg): Active; MIC (Neisseria meningitidis; [20]): 0.062 µg/mL (≈ 0.224 µM); MIC (Neisseria meningitidis; [21]): 0.125 µg/mL (≈ 0.452 µM); MIC (Neisseria meningitidis; [22]): 0.062 µg/mL (≈ 0.224 µM) |
| CCOC(=O)N1CCN(C(=S)NN=C(C)c2ccccn2)CC1 [Compound I, 1,4-Diaza-4-carboethoxycyclohexane-1-thiocarboxylic acid 2-[1-(2-pyridyl)ethylidene]hydrazide] |  |  |  |  |  |  |  |  |  |  |  |  |  |  |  |  |  |  |  |  | In vivo Antimalarial Activity ([2]; Dosage Level 10 mg/kg): Active; In vivo Antimalarial Activity ([2]; Dosage Level 20 mg/kg): Active; In vivo Antimalarial Activity ([2]; Dosage Level 160 mg/kg): Toxic; In vivo Antimalarial Activity ([2]; Dosage Level 640 mg/kg): Toxic |
| CC(=NNC(=S)N1CC2CCC(CC2)C1)c1ccccn1 [L, 3-Azabicyclo[3.2.2]nonane-3-thiocarboxylic acid 2-[1-(2-pyridyl)ethylidene]hydrazide] | 10 (≈ 33.1 µM) | 1 (≈ 3.31 µM) | 1 (≈ 3.31 µM) | 0.1 (≈ 0.331 µM) | 0.1 (≈ 0.331 µM) | 0.1 (≈ 0.331 µM) | 59 | 0.031 (≈ 0.102 µM) | 0.016 (≈ 0.0529 µM) | 0.031 (≈ 0.102 µM) | 0.031 (≈ 0.102 µM) | 0.031 (≈ 0.102 µM) | 0.031 (≈ 0.102 µM) | 2 (≈ 6.61 µM) | 2 (≈ 6.61 µM) | 2 (≈ 6.61 µM) | 2 (≈ 6.61 µM) | 2 (≈ 6.61 µM) | 0.031 (≈ 0.102 µM) | 0.062 (≈ 0.205 µM) | MIC (Staphylococcus aureus; Staphylococcus aureus isolate I): 1 µg/mL (≈ 3.31 µM); MIC (Staphylococcus aureus; Staphylococcus aureus isolate II): 1 µg/mL (≈ 3.31 µM); MIC (Staphylococcus aureus; Staphylococcus aureus isolate III): 1 µg/mL (≈ 3.31 µM); MIC (Staphylococcus aureus; Staphylococcus aureus isolate IV): 1 µg/mL (≈ 3.31 µM); MIC (Staphylococcus aureus; Staphylococcus aureus isolate V): 1 µg/mL (≈ 3.31 µM); MIC (Neisseria meningitidis; [20]): < 0.031 µg/mL; MIC (Neisseria meningitidis; [21]): 0.062 µg/mL (≈ 0.205 µM); MIC (Neisseria meningitidis; [22]): 0.125 µg/mL (≈ 0.413 µM) |
